Where a name gives a salt, the structure may show the parent alone. Read-outs that look alike come from different tables or passages of the source.
Tests used:
[1] = molecular target: T1, α1A Human Adrenergic Receptor (Homo sapiens, UniProt P25100); test: Radioligand binding, [3H]prazosin, cloned human α1A adrenergic receptor; details: pKi alpha-1 1a
T1 construct: The entire coding region of α1A (1719 bp); expressed in transfected cells
T1 sequence (P25100 1-572): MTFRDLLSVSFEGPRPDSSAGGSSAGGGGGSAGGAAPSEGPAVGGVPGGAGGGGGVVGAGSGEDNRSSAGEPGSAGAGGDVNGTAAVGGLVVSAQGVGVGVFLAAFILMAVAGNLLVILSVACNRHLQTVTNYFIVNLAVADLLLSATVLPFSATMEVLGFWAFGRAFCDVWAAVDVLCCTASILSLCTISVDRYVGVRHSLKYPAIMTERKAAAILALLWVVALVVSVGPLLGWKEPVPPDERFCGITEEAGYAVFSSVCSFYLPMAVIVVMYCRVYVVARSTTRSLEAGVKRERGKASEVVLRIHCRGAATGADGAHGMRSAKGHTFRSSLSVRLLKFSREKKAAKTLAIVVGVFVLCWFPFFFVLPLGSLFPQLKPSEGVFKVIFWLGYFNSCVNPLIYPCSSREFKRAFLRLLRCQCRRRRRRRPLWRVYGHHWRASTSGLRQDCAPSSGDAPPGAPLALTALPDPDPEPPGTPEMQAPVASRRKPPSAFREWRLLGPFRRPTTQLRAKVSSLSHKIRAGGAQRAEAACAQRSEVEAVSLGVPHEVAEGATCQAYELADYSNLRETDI
Outline: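 Filter-bound radioactivity measured [3H]prazosin (0.5 nM) binding to membranes of LM(tk−) cells expressing the human α1A receptor after 20 min at 37° C. Phentolamine at 10 μM set nonspecific binding.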

α2B receptor = molecular target: T2, α2B receptor (Homo sapiens, UniProt P18089); test: Competition binding, [3H]rauwolscine, human α2B receptor; details: pKi alpha-2 2b
T2 construct: host or cells: LM(tk-) cells, line L-NGC-α2B
T2 sequence (P18089 1-450): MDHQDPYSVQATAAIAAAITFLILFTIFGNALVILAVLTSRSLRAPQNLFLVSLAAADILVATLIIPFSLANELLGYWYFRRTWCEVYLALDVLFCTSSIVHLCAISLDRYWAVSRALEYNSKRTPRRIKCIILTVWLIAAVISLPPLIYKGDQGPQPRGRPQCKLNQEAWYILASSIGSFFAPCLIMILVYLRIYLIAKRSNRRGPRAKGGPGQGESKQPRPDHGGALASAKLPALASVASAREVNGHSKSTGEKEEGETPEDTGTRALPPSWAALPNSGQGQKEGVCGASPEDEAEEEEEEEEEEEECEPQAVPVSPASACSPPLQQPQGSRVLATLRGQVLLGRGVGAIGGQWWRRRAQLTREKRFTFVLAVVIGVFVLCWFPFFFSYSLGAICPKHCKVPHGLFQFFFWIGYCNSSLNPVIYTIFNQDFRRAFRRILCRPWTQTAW
Outline: (§1)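 LM(tk−) lysates, stable α2A/α2B/α2C transfectants; 25 mM glycylglycine pH 7.6 (RT). [3H]rauwolscine 0.5 nM, equilibrium competition; NSB 10 μM phentolamine. GF/B filtration, cell harvester.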

α2C receptor = molecular target: T3, α2C receptor (Homo sapiens, UniProt P18825); test: Competition binding, [3H]rauwolscine, human α2C receptor
T3 construct: host or cells: LM(tk-) cells, line L-α2C
T3 sequence (P18825 1-462): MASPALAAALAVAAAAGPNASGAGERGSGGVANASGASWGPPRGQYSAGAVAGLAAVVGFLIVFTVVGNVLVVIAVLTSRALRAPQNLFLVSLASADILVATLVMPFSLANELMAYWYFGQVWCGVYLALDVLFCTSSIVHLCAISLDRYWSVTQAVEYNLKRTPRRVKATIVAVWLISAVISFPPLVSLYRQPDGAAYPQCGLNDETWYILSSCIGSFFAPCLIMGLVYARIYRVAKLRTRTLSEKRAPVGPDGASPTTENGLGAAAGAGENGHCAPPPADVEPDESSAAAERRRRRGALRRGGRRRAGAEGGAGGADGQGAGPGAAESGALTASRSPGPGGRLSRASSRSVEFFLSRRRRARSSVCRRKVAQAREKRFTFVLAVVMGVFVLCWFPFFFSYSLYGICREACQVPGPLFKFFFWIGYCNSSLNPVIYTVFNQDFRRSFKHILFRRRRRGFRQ
Outline: as §1

[2] = [3H]prazosin, cloned human receptor in LM(tk-) cell membranes, SEM and n in lines below
[3] = [3H]rauwolscine, LM(tk-) cell line L-NGC-α2B, SEM and n in lines below
[4] = [3H]rauwolscine, LM(tk-) cell line L-α2C, SEM and n in lines below, read-out: pKi alpha-2 2c (converted)
[5] = [3H]prazosin, cloned human α1A receptor, LM(tk−) cell membranes
[6] = [3H]rauwolscine, human α2B receptor, LM(tk−) cells
[7] = [3H]rauwolscine, human α2C receptor, LM(tk−) cells, read-out: pKi alpha-2 2c (converted)
[8] = pKi alpha-2 2c, [3H]rauwolscine, human α2C receptor, LM(tk−) cells

| Structure (SMILES) | Ki [1] | Ki (α2B receptor) | Ki (α2C receptor; pKi alpha-2 2c) | Ki [1, 5] | Ki (α2B receptor; [6]) | other results |
| --- | --- | --- | --- | --- | --- | --- |
| CC1=C(C(=O)NCCCN2CCC(c3ccccc3)(c3ccccc3)CC2)C(c2ccc([N+](=O)[O-])cc2)c2c([nH]c(=O)[nH]c2=O)N1 (stereo not drawn) [Example 64] | – | – | – | – | – | Ki [1, 2]: 490 nM; Ki (α2B receptor; [3]): 437 nM; Ki (α2C receptor; [4]): 479 nM |
| CCC1=C(C(=O)NCCCN2CCC(c3ccccc3)(c3ccccc3)CC2)C(c2ccc([N+](=O)[O-])cc2)C(C(=O)OC)=C(C)N1 (stereo not drawn) [Example 73, 2-Ethyl-1,4-dihydro-5-methoxycarbonyl-6-methyl-4-(4-nitro) phenyl-3-(N-(3-(4,4-diphenylpiperidin-1-yl)propyl))carboxamidopyridine] | 204 nM | 676 nM | 275 nM | – | – | – |
| COC(=O)C1=C(C)NC(c2ccccc2)=C(C(=O)NCCCN2CCC(c3ccccc3)(c3ccccc3)CC2)C1c1ccc([N+](=O)[O-])cc1 (stereo not drawn) [Example 78, 1,4-Dihydro-5-methoxycarbonyl-6-methyl-4-(4-nitro)phenyl-2-phenyl-3-(N-(3-(4,4-diphenylpiperidin-1-yl)propyl))carboxamidopyridine hydrochloride hydrate] | 178 nM | 550 nM | 151 nM | – | – | – |
| CCC1=C(C(=O)NCCCN2CCC(c3ccccc3)(c3ccccc3)CC2)C(c2ccc([N+](=O)[O-])cc2)C(C(N)=O)=C(C)N1 (stereo not drawn) [Example 81, 5-carboxamido-2-ethyl-1,4-dihydro-6-methyl-4-(4-nitro)phenyl-3-(N-(3-(4,4-diphenylpiperidin-1-yl)propyl))carboxamidopyridine hydrochloride] | – | – | – | – | – | Ki [1, 2]: 407 nM; Ki (α2B receptor; [3]): 162 nM; Ki (α2C receptor; [4]): 123 nM |
| CCOC(=O)C1=C(CC(=O)NCCCN2CCC(c3ccccc3)(c3ccccc3)CC2)NC(C)=C(C(=O)OC)C1c1ccc([N+](=O)[O-])cc1 (stereo not drawn) [Example 89, 3-Ethoxycarbonyl-1,4-dihydro-5-methoxycarbonyl-6-methyl-4-(4-nitro)phenyl-2-(N-(3-(4,4,-diphenylpiperidin-1-yl)propyl)carboxamido)methylpyridine, fumarate salt] | 347 nM | 1950 nM | 501 nM | – | – | – |
| COC(=O)C1=C(C)N(C)C(C)=C(C(=O)OCCCN2CCC(c3ccccc3)(c3ccccc3)CC2)C1c1ccc([N+](=O)[O-])cc1 (stereo not drawn) [Example 92, 1,4-Dihydro-5-methoxycarbonyl-1,2,6-trimethyl-4-(4-nitrophenyl)-3-[3-(4,4-diphenylpiperidin-1-yl)propoxy]carbonylpyridine hydrochloride hydrate] | 209 nM | 724 nM | 759 nM | – | – | – |
| COc1ccc(C2(c3ccccc3)CCN(CCCNC(=O)C3=C(C)NC(C)=C(C(N)=O)C3c3ccc([N+](=O)[O-])cc3)CC2)cc1 (stereo not drawn) [Example 98, 5-Carboxamido-1,4-dihydro-3-{N-[3-(4-(4-methoxyphenyl)-4-phenylpiperidin-1-yl)propyl]}carboxamido-2,6-dimethyl-4-(4-nitrophenyl)pyridine hydrochloride] | – | – | – | 1100 nM | 589 nM | Ki (α2C receptor; [7]): 427 nM |
| CCC1=C(C(N)=O)C(c2ccc([N+](=O)[O-])cc2)C(C(=O)NCCCN2CCC(O)(c3ccccc3)CC2)=C(CC)N1 (stereo not drawn) [Example 100, 5-Carboxamido-2,6-diethyl-1,4-dihydro-3-{N-(3-(4-hydroxy-4-phenylpiperidin-1-yl)propyl]}carboxamido-4-(4-nitrophenyl)pyridine hydrochloride hydrate] | – | – | – | 4900 nM | 2880 nM | Ki (α2C receptor; [7]): 1780 nM |
| CCC1=C(C(N)=O)C(c2ccc([N+](=O)[O-])cc2)C(C(=O)NCCCN2CCC(c3ccc(OC)cc3)(c3ccc(OC)cc3)CC2)=C(CC)N1 (stereo not drawn) [Example 103, 5-Carboxamido-2,6-diethyl-1,4-dihydro-3-{N-[3-(4,4-bis-(4-methoxyphenyl)piperidin-1-yl)propyl]}carboxamido}-4-(4-nitrophenyl)pyridine hydrochloride] | 2510 nM | 741 nM | 269 nM | – | – | – |
| CCC1=C(C(N)=O)C(c2ccc([N+](=O)[O-])cc2)C(C(=O)NCCCN2CCC3(CC2)C(=O)NCN3c2ccccc2)=C(CC)N1 (stereo not drawn) [Example 105, 5-Carboxamido-2,6-diethyl-1,4-dihydro-4-(4-nitrophenyl)-3-{N-[3-(1-phenyl-4-oxo-1,3,8-triazaspiro[4.3]decan-8-yl)propyl]}carboxamidopyridine hydrochloride hydrate] | 2450 nM | 2190 nM | 1380 nM | – | – | – |
| CCC1=C(C(N)=O)C(c2ccc([N+](=O)[O-])cc2)C(C(=O)NCCCN2CCC(C)(c3ccccc3)CC2)=C(CC)N1 (stereo not drawn) [Example 106, 5-Carboxamido-2,6-diethyl-1,4-dihydro-3-{N-[3-(4-Methyl-4-phenylpiperidin-1-yl)propyl]}carboxamido-4-(4-nitrophenyl)pyridine hydrochloride hydrate] | – | – | – | 2400 nM | 372 nM | Ki (α2C receptor; [7]): 295 nM |
| CCC1=C(C(=O)NCCCN2CCC(c3ccccc3)(c3ccccc3)CC2)C(c2cccc(OC)c2)C(C(=O)NCCCN2CCC(c3ccccc3)(c3ccccc3)CC2)=C(CC)N1 [Example 112, 2,6-Diethyl-1,4-dihydro-4-(3-methoxyphenyl)-3,5-bis(N-(3-(4,4-diphenylpiperidin-1-yl)propyl)carboxamido)-pyridine] | – | – | – | 30.2 nM | 447 nM | Ki (α2C receptor; [8]): 269 nM |
| CCC1=C(C(=O)NCCCN2CCC(c3ccccc3)(c3ccccc3)CC2)C(c2cccc(OC)c2)C(C(N)=O)=C(C)N1 (stereo not drawn) [Example 113, 5-Carboxamide-2-ethyl-1,4-dihydro-4-(3-methoxyphenyl)-6-methyl-3-(N-(3-(4,4-diphenylpiperidin-1-yl)propyl)carboxamido)-pyridine] | – | – | – | 692 nM | 166 nM | Ki (α2C receptor; [8]): 316 nM |
| CCC1=C(C(=O)NCCCN2CCC(c3ccccc3)(c3ccccc3)CC2)C(c2ccc(N)cc2)C(C(=O)OC)=C(C)N1 (stereo not drawn) [Example 114, 4-(4-Aminophenyl)-2-ethyl-1,4-dihydro-5-methoxycarbonyl-6-methyl-3-(N-(3-(4,4-diphenylpiperidin-1-yl)propyl)carboxamido)-pyridine] | 550 nM | 468 nM | 724 nM | – | – | – |
| CC1=C(C(N)=O)C(c2ccc(S(C)(=O)=O)cc2)C(C(=O)NCCCN2CCC(c3ccccc3)(c3ccccc3)CC2)=C(C)N1 (stereo not drawn) [Example 115, 5-Carboxamido-1,4-4-dihydro-4-(4-methanesufonylphenyl)-2,6-dimethyl-3-(N-(3-(4,4-diphenylpiperidin-1-yl)propyl)carboxamido)-pyridine] | – | – | – | 2000 nM | 776 nM | Ki (α2C receptor; [7]): 2290 nM |
| CCC1=C(C(N)=O)C(c2ccc(S(C)(=O)=O)cc2)C(C(=O)NCCCN2CCC(c3ccccc3)(c3ccccc3)CC2)=C(CC)N1 (stereo not drawn) [Example 116, 5-Carboxamido-2,6-diethyl-1,4-dihydro-4-(4-methanesulfonylphenyl)-3-(N-(3-(4,4-diphenylpiperidin-1-yl)propyl)carboxamido)-pyridine] | – | – | – | 186 nM | 372 nM | Ki (α2C receptor; [8]): 741 nM |
